According to patent US9066965B1, “Purified limonin glucoside for prevention and treatment of chronic diseases” (The United States of America, as represented by the …, priority 2012, dated 2015):
Entries after “also recorded” stand apart in the source; their conditions may differ.

Columns and labels:
Assay type in all cases: in vivo, human
[1] = Complete blood cell count (hematological parameters); settings: End LG, 500 mg/d, 56 days, n = 10, mean ± SEM
Complement 3 = assay: Plasma complement 3 in MAP 1.6
Experimental: Plasma samples prepared from blood collected in EDTA-containing tubes were stored at −80° C. until tested. The samples were thawed at room temperature, vortexed, spun at 13,000×g for 5 minutes for clarification and 100 uL aliquots were removed for MAP analysis into a master microtiter plate. Using automated pipetting, an aliquot of each sample was introduced into one of the capture microsphere multiplexes of the Human MAP 1.6. This MAP comprised of 89 antigens that included markers for oxidative stress, inflammation, immune status, T2DM, CVD, blood clotting, cancer, liver and kidney functions. All plasma samples were tested in duplicate. The mixture of sample and capture microspheres were thoroughly mixed and incubated at room temperature for 1 hour. Multiplexed cocktails of biotinylated, reporter antibodies for each multiplex were then added robotically and after thorough mixing, were incubated for an additional hour at room temperature. […] Testing results were determined first for the high, medium and low controls for each multiplex to ensure proper assay performance. Unknown values for each of the analytes localized in a specific multiplex were determined using 4 and 5 parameter, weighted and non-weighted curve fitting algorithms included in the data analysis package. […]

[2] = Comprehensive metabolic panel (CMP) on serum
Experimental: (§1) CMP performed on serum samples at the chemistry laboratory of University of California Medical Center by using the Beckman Coulter DxC800. GGT and CKMB were determined in the EDTA plasma. GGT activity was determined by using Integra 400 Chemistry Analyzer, Roche Diagnostics. CKMB concentration was determined by using the Multiplex kits from Mesoscale Discovery (Gaithersburg, Md. 20877).
(§2) SAS PROC MIXED was used to fit the cross-over model (Littell R C, Milliken G A, Stroup W W, Wolfinger R D, Schabenberger O. SAS System for Mixed Models. Cay, N.C.: SAS Institute Inc.; 2006). Transformations were used when appropriate to stabilize the variances among the diets and periods. The fixed effects were order, diet, the interaction and the covariate; and the random effect was subjects within order. The test for order is a test for carry-over effect. […] Comparisons were made between the values at the end of placebo and LG treatments and using the baseline data as a covariate. Results are presented as means±SEM. Differences were considered statistically significant for P value<0.05.

[3] = system: prostate specific antigen (PSA); assay: Plasma free prostate specific antigen in MAP 1.6; settings: for decrease of plasma free PSA concentration: vs placebo, n=5
Experimental: Plasma samples prepared from blood collected in EDTA-containing tubes were stored at −80° C. until tested. The samples were thawed at room temperature, vortexed, spun at 13,000×g for 5 minutes for clarification and 100 uL aliquots were removed for MAP analysis into a master microtiter plate. Using automated pipetting, an aliquot of each sample was introduced into one of the capture microsphere multiplexes of the Human MAP 1.6. This MAP comprised of 89 antigens that included markers for oxidative stress, inflammation, immune status, T2DM, CVD, blood clotting, cancer, liver and kidney functions. All plasma samples were tested in duplicate. The mixture of sample and capture microspheres were thoroughly mixed and incubated at room temperature for 1 hour. Multiplexed cocktails of biotinylated, reporter antibodies for each multiplex were then added robotically and after thorough mixing, were incubated for an additional hour at room temperature. Multiplexes were developed using an excess of streptavidin-phycoerythrin solution which was thoroughly mixed into each multiplex and incubated for 1 hour at room temperature. The volume of each multiplexed reaction was reduced by vacuum filtration and the volume increased by dilution into matrix buffer for analysis. Analysis was performed in a Luminex 100 instrument and the resulting data stream was interpreted using proprietary data analysis software developed at Rules-Based Medicine. For each multiplex, both calibrators and controls were included on each microtiter plate. 8-point calibrators were run in the first and last column of each plate and 3-level controls were included in duplicate. Testing results were determined first for the high, medium and low controls for each multiplex to ensure proper assay performance. Unknown values for each of the analytes localized in a specific multiplex were determined using 4 and 5 parameter, weighted and non-weighted curve fitting algorithms included in the data analysis package. The intra-sample coefficient of variance (CV) for all antigens with concentrations above the lowest detectable dose (LDD) was less than 20%, and was less than 10% for more than 50% of the antigens tested.
(§3) Results are presented as means±SEM.

[4] = Lipoprotein size and sub fraction concentrations by NMR
Experimental: Mean particle size, total number of particles and their number within different subclasses of VLDL, LDL, and HDL, were determined by NMR methods. For this analysis frozen plasma samples were shipped in dry ice by overnight delivery to LipoScience Inc., who performed the analysis.
as §3

[5] = system: creatinine kinase MB (CKMB); assay: Plasma CKMB concentration (Mesoscale multiplex); settings: EDTA plasma; End LG, 500 mg/d, 56 days, n = 10, mean ± SEM
Experimental: as §1, §2

[6] = system: peripheral blood mononuclear cells (PBMNC); assay: Ex-vivo production of cytokines by PBMNC
Experimental: Peripheral blood mononuclear cells (PBMNC) were isolated by using Dulbecco's phosphate buffered saline (DPBS) and suspended in Russ's-10 medium containing 10% autologous sera at concentrations of 1 million/mL. PBMNC were cultured in Costar 96-well sterile flat bottom plates coated with mouse anti-human CD3 and CD28 to stimulate T cells. Another set of wells were stimulated with LPS (final concentration 10 ng/mL) to stimulate monocytes. Cell culture supernatants were collected at 24, 48, and 72 hr after stimulation by centrifugation. Cell culture supernatants were stored at −80° C. until tested for cytokine concentrations. All cytokines were analyzed on a BioPlex instrument (BioRad Laboratories, Richmond, Calif.) with multiplex reagents kits (Millipore Corp., Danvers, Mass.).
as §3

[7] = serum, End LG, 500 mg/d, 56 days, n = 10, mean ± SEM
[8] = plasma, NMR, End LG, 500 mg/d, 56 days, n = 10, mean ± SEM
[9] = cells stimulated with CD3/28 (each 0.75 μg/mL, 72 hr), End LG, 500 mg/d, 56 days, n = 10, mean ± SEM
[10] = cells stimulated with LPS (10 ng/mL, 24 hr), End LG, 500 mg/d, 56 days, n = 10, mean ± SEM

CC1(C)O[C@H]2CC(=O)OC[C@]23[C@H]2CC[C@@](C)([C@@H](O[C@@H]4O[C@H](CO)[C@@H](O)[C@H](O)[C@H]4O)c4ccoc4)[C@@]4(O[C@@H]4C(=O)O)[C@]2(C)C(=O)C[C@@H]13 [LG, limonin glucoside]
Specific gravity [1]: 1.02 ± 0.00 | Complement 3 (Complement 3; plasma, End LG, 500 mg/d, 56 days, n = 10, mean ± SEM): 1.17 ± 0.05 mg/mL | decrease of plasma C3 concentration (Complement 3; vs end of placebo treatment, p=0.014): 6.4% | Albumin [2, 7]: 3.95 ± 0.05 g/dL | Aspartate amino transferase [2, 7]: 23.3 ± 2.22 U/L | CO2 [2, 7]: 29.10 ± 0.48 mEq/L | Calcium [2, 7]: 9.42 ± 0.06 mg/dL | Chloride [2, 7]: 104.80 ± 0.81 mEq/L | Creatinine [2, 7]: 0.84 ± 0.03 mg/dL | Glucose [2, 7]: 89.7 ± 2.58 mg/dL | Lactate dehydrogenase [2, 7]: 126.80 ± 8.90 U/L | Potassium [2, 7]: 4.61 ± 0.12 mEq/L | Protein [2, 7]: 6.59 ± 0.08 g/dL | Sodium [2, 7]: 140.80 ± 0.68 mEq/L | Total bilirubin [2, 7]: 0.81 ± 0.08 mg/dL | Urea [2, 7]: 11.70 ± 0.92 mg/dL | effect on circulating concentration of AST ([2]; vs end of placebo treatment): did not significantly decrease | effect on serum albumin, total protein, glucose, aspartate amino transferase, lactate dehydrogenase, calcium, potassium, sodium, chloride, CO2, creatinine, CKMB, total bilirubin, urea ([2]; vs end of placebo treatment): did not alter | subjects in whom free PSA concentration was reduced ([3]; 5 men, 5 women): all men and 3 women | Prostate-Specific Antigen, Free ([3]; plasma, MAP 1.6, End LG, 500 mg/d, 56 days, n = 10, mean ± SEM): 0.31 ± 0.11 ng/mL | decrease of plasma free PSA concentration ([3]; men, p=0.059): 14.5% | decrease of plasma free PSA concentration ([3]; women, p=0.309): 22.9% | Calculated TG total [4, 8]: 150.50 ± 22.84 mg/dL | Calculated cholesterol total [4, 8]: 208.50 ± 5.45 mg/dL | HDL cholesterol total [4, 8]: 46.10 ± 2.65 mg/dL | IDL cholesterol [4, 8]: 8.93 ± 1.83 mg/dL | IDL particles [4, 8]: 71.80 ± 14.77 nmols/L | LDL total cholesterol [4, 8]: 137.60 ± 5.14 mg/dL | Large HDL cholesterol [4, 8]: 20.19 ± 3.24 mg/dL | Large HDL particles [4, 8]: 6.57 ± 0.99 μmols/L | Large LDL cholesterol [4, 8]: 67.24 ± 9.75 mg/dL | Large LDL particles [4, 8]: 495.80 ± 71.47 nmols/L | Large VLDL & chylomicron TG [4, 8]: 33.01 ± 13.18 mg/dL | Large VLDL & chylomicron particles [4, 8]: 3.50 ± 1.64 nmol/L | Mean particle size (HDL particles) [4, 8]: 8.86 ± 0.12 nm | Mean particle size (LDL particles) [4, 8]: 20.94 ± 0.26 nm | Mean particle size (VLDL & chylomicron particles) [4, 8]: 48.60 ± 2.25 nm | Medium HDL cholesterol [4, 8]: 5.87 ± 1.87 mg/dL | Medium HDL particles [4, 8]: 4.54 ± 1.43 μmols/L | Medium VLDL & chylomicron particles [4, 8]: 37.70 ± 8.22 nmol/L | Medium VLDL TG [4, 8]: 53.08 ± 11.93 mg/dL | Medium small LDL cholesterol [4, 8]: 22.60 ± 3.80 mg/dL | Medium small LDL particles [4, 8]: 208.40 ± 35.06 nmols/L | Small HDL cholesterol [4, 8]: 20.03 ± 1.91 mg/dL | Small HDL particles [4, 8]: 20.25 ± 1.94 μmols/L | Small LDL cholesterol [4, 8]: 61.47 ± 10.32 mg/dL | Small VLDL & chylomicron particles [4, 8]: 45.47 ± 5.95 nmol/L | Small VLDL TG [4, 8]: 20.32 ± 2.64 mg/dL | Total HDL particles [4, 8]: 31.35 ± 0.95 μmols/L | Total LDL particle [4, 8]: 1582.80 ± 118.15 nmols/L | Total VLDL & chylomicron particles [4, 8]: 86.69 ± 13.15 nmol/L | Total small LDL particles [4, 8]: 1015.20 ± 169.46 nmols/L | VLDL & chylomicron total TG [4, 8]: 106.50 ± 22.20 mg/dL | Very small LDL cholesterol [4, 8]: 38.91 ± 6.55 mg/dL | Very small LDL particles [4, 8]: 806.80 ± 134.82 nmols/L | effect on mean particle sizes and sub-fraction concentrations of VLDL, LDL, HDL ([4]; vs end of placebo treatment): did not alter | CKMB [5]: 2.60 ± 0.50 ng/mL | ex-vivo secretion of cytokines by stimulated T cells and monocytes ([6]; LG vs placebo treatment): did not differ; also recorded: trend for decrease | IL-2 [6, 9]: 58.8 ± 25.8 pg/mL | IL-4 [6, 9]: 66.7 ± 12.8 pg/mL | IL-10 [6, 9]: 779 ± 126 pg/mL | Interferon γ [6, 9]: 51700 ± 10536 pg/mL | TNF α [6, 9]: 6723 ± 970 pg/mL | IL-1β [6, 10]: 4731 ± 1123 pg/mL | IL-6 [6, 10]: 10926 ± 1586 pg/mL | TNF α [6, 10]: 1354 ± 231 pg/mL | concentrations of all secreted cytokines except IL-10 lower than after placebo ([6]; ex vivo, CD3/28 or LPS stimulated PBMNC, not significant): 8-18%
